{"source": "patent US20060258578A1", "about": "“Pharmaceutical composition” (The University of Zurich, priority 2005, published 2006)", "key": {"MC3T3-E1 cells [1]": {"test_system": "MC3T3-E1 cells", "experiment": "maturation of preosteoblastic cells determined by alkaline phosphatase activity", "assay_type": "cell-based", "conditions": "for effect on maturation of MC3T3-E1 cells (alkaline phosphatase activity), solvent comparison: increasing amounts of solvent, triacetin 0,1 to 6 mM (FIG. 3)", "method": "(§1) MC3T3-E1 cells were grown in an alpha-modified Minimum Essential Medium (Life Technologies, Inc., Grand Island, N.Y.) containing 10% fetal calf serum (Life Technologies, Inc.), 50 μg/ml gentamycin, and 50 μg/ml ascorbic acid. C3H10T1/2 cells were grown in basal medium Eagle, and 50 μg/ml gentamycin. To examine the action of triacetin on both cell lines, 1×10^5 cells per well were plated in 6-well plates and triacetin subsequently added. Medium exchange was performed after 3 days and alkaline phosphatase (ALP) was determined according to Lowry, O. et al. [J. Biol. Chem. 207 (1954) 19-37]: p-nitrophenol liberated was converted to p-nitrophenylate by adding 400 μl of 1 M NaOH, which was quantitated by measuring the absorbance at 410 nm (epsilon=17500/mol×cm). Alkaline phosphatase activity was normalized to total protein and expressed as nmol nitrophenylate generated per min per mg protein.\n(§2) First, to verify the osteoinductive activity of triacetin an embryonic, murine, mesenchymal stem cell line C3H10T1/2 and a preosteoblastic cell line MC3T3-E1 were used and cultured as described above. C3H10T1/2 cells can differentiate into cartilage, bone or adipose cells, whereas MC3T3-E1 produces and releases autologous BMP. Alkaline phosphatase activity was used as a marker for the differentiation into the osteoblastic lineage.\nAdditionally, the effect of various plasticizers/solvents regarding their osteogenetic effect was compared to that of triacetin. MC3T3-E1 cells were grown as described above and treated with increasing amounts of different solvents and the effect on the maturation of MC3T3-E1 cells determined after 6 days by alkaline phosphatase activity.\nTo determine the effect of external BMP, C3H10T1/2 cells and MC3T3-E1 cells were plated at day one in 4 ml medium and ALP determination performed on day 6. On day 1 rhBMP was added to the cells from a stock solution of 2 mg/ml rhBMP-2 in 1 mM HCl to a concentration of 1 μg/ml. triacetin to a final concentration of 2 and 4 mM was added to the cells at the same time point from a stock solution of 200 mM triacetin in respective medium. After application triacetin and rhBMP was mixed by gently swirling the entire 6 well plate. In a separate experiment, the cells were treated with triacetin only.\nIn a similar manner, the effect of external rhBMP-4 on the maturation of MC3T3-E1 cells was determined by alkaline phosphatase activity. MC3T3-E1 cells were treated with triacetin in the presence or absence of 60 ng rhBMP-4/ml of the medium.\nMC3T3-E1 cells were treated with triacetin in the presence or absence of 60 ng rhBMP-7/ml of the medium."}, "MC3T3-E1 cells [2]": {"test_system": "MC3T3-E1 cells", "experiment": "mineralization visualized by Alizarin red-S staining", "assay_type": "cell-based", "conditions": "MC3T3-E1, 4 weeks, 5 mM glycerol phosphate, 2.0 and 4.0 mM triacetin", "method": "FIG. 2A: MC3T3-E1 cells treated with increasing amounts of triacetin and the maturation determined after 6 days by alkaline phosphatase activity. FIG. 2B: Mineralization by MC3T3-E1 cells seeded on a 6-well plate visualized by Alizarin S-staining. The MC3T3-E1 cells were cultured for 4 weeks in the presence of 5 mM glycerol phosphate. From the left: no triacetin was added, 2.0 mM triacetin was added, 4.0 mM triacetin.\nMineralization was determined in MC3T3-E1 cells grown in the same medium supplemented with 5 mM glycerol phosphate and 1 μg/ml rhBMP-2 or 60 ng/ml of rhBMP-4 of rhBMP-7. Alizarin red-S staining was performed after 4 weeks according to Bodine, P. V. N., et al. [J. Bone Mineral Res. 11 (1996) 806-819]."}, "C3H10T1/2 cells": {"test_system": "C3H10T1/2 cells", "experiment": "differentiation of mesenchymal stem cells towards osteoblastic lineage determined by alkaline phosphatase activity", "assay_type": "cell-based, murine", "method": "as §1\nas §2, with “Alkaline phosphatase activity was used as a marker for the differentiation into the osteoblastic lineage.” left out\nThe differentiation of the mesenchymal cell like cell line (C3H10T1/2) towards an osteoblastic lineage was determined by alkaline phosphatase activity. […]"}}, "note": "“Also recorded” adds a separate entry of the source.", "data": [{"smiles": "CN(C)C=O", "note": "[N,N-dimethylformamide, reference compound]", "values": [{"measurement": "effect on maturation of MC3T3-E1 cells (alkaline phosphatase activity), solvent comparison", "setting": "MC3T3-E1 cells [1]; after 6 days", "value": "no positive effect"}]}, {"smiles": "C[S+](C)[O-]", "note": "[dimethylsulfoxide, reference compound]", "values": [{"measurement": "effect on maturation of MC3T3-E1 cells (alkaline phosphatase activity), solvent comparison", "setting": "MC3T3-E1 cells [1]; after 6 days", "value": "no positive effect"}]}, {"smiles": "CCO", "note": "[ethanol, reference compound]", "values": [{"measurement": "effect on maturation of MC3T3-E1 cells (alkaline phosphatase activity), solvent comparison", "setting": "MC3T3-E1 cells [1]; after 6 days", "value": "no positive effect"}]}, {"smiles": "CO", "note": "[methanol, reference compound]", "values": [{"measurement": "effect on maturation of MC3T3-E1 cells (alkaline phosphatase activity), solvent comparison", "setting": "MC3T3-E1 cells [1]; after 6 days", "value": "no positive effect"}]}, {"smiles": "CC(=O)OCC(COC(C)=O)OC(C)=O", "note": "[triacetin, glyceryl triacetate]", "values": [{"measurement": "mineralisation by alizarin-S-staining", "setting": "MC3T3-E1 cells [2]", "value": "increased mineralisation"}, {"measurement": "increase of alkaline phosphatase activity", "setting": "MC3T3-E1 cells [1]; MC3T3-E1, 0,0 to 4 mM triacetin, after 6 days", "value": "2.0-7.0 factor"}, {"measurement": "synergistic effect with rhBMP4 on maturation (alkaline phosphatase activity)", "setting": "MC3T3-E1 cells [1]; MC3T3-E1, triacetin with 60 ng rhBMP4/ml (FIG. 5)", "value": "synergistic effect"}, {"measurement": "synergistic effect with rhBMP-7 on maturation (alkaline phosphatase activity)", "setting": "MC3T3-E1 cells [1]; MC3T3-E1, triacetin with 60 ng rhBMP-7/ml (FIG. 6)", "value": "synergistic bone forming effect"}, {"measurement": "synergistic effect with rhBMP-2 on maturation (alkaline phosphatase activity)", "setting": "MC3T3-E1 cells [1]; MC3T3-E1, triacetin with 1 μg rhBMP-2/ml (FIG. 4)", "value": "synergistic effect"}, {"measurement": "effect on maturation of MC3T3-E1 cells (alkaline phosphatase activity), solvent comparison", "setting": "MC3T3-E1 cells [1]; after 6 days", "value": "increases in a concentration dependent manner"}, {"measurement": "alkaline phosphatase activity, triacetin alone", "setting": "C3H10T1/2 cells; C3H10T1/2, 2 mM and 4 mM, absence of rhBMP", "value": "increase in alkaline phosphatase activity; also recorded: able to induce alkaline phosphatase activity"}, {"measurement": "synergistic effect with rhBMP-2 on alkaline phosphatase activity", "setting": "C3H10T1/2 cells; C3H10T1/2, triacetin 2 and 4 mM with 1 μg rhBMP-2/ml, day 6", "value": "further enhanced; also recorded: works synergistically"}]}]}
